Laboratory results from US20260167972A1, “AMINO ACID DERIVATIVES AS NOVEL DELIVERY AGENTS FOR FUNCTIONAL DELIVERY OF OLIGONUCLEOTIDES” (University of Rochester, priority 2022, published 2026).

Key:
[1] = biological target: FITC-siRNA; test: Slot blot filtration binding affinity assay; conditions: binding to siRNA (FITC-siRNA); average of three measurements ± standard deviation
Experimental: The binding affinity (Kd) of N-X-Phe-DAP derivatives to siRNA was next characterized to determine how the chemical functionality of the Phe derivatives impacts siRNA interactions. Comparative binding affinity (Kd) of N-X-Phe-DAP derivatives to fluorescently labeled FITC-siRNA was determined using a slot blot filtration assay (Table 2). […] Therefore, the decrease in binding affinity of Fmoc-F5-Phe-DAP for siRNA is likely due to competition between siRNA binding and self-assembly.
Slot Blot Binding Affinity Measurements (see FIGS. 39-48): Nitrocellulose (Bio-Rad, #1620112) and nylon membranes (VWR, #95038-400) were soaked in 100 mM Tris-HCl buffer for 20 minutes. The membranes were then stacked on two sheets of Bio-Rad SF thick filter paper (#1620161) in a Bio-Rad SF 48-well slot blot apparatus. 200 μL of 100 mM Tris-HCl buffer was added to each well to test for even vacuum distribution and for membrane rehydration three times. N-X-Phe-DAP derivatives were prepared in concentrations ranging from 4000 μM to 0 μM and incubated with FITC-siRNA (6.5 μL, 1 μM) for 30 minutes in the dark. 40 μL of each sample, in addition to 200 μL Tris-HCl buffer was run in triplicate and the apparatus was covered with aluminum foil for 20 minutes. The vacuum was opened, allowing for samples in the wells to penetrate the membranes. After closing the vacuum, 200 μL of Tris-HCl buffer was added to rinse each well followed by re-opening of the vacuum three times. Membranes were then dried and imaged on Bio-Rad ChemiDoc MS. Fluorescence intensity density measurements were made using Image J. The fraction bound of siRNA was calculated using the following equation, where Initro is the fluorescence intensity measured from the nitrocellulose membrane and Inylon is the fluorescence intensity measured from the nylon membrane:
This equation is as follows where Y is the fraction bound, X is the N-X-Phe-DAP concentration (μM), Bmax is the maximum binding, Kd is the binding affinity, and h is the Hill slope: […]

[2] = test system: cells; test: Delivery of fluorescent protein encoding mRNA and plasmid DNA into cells (FIG. 50); type: cell-based; conditions: 14 nM 1-Nap-Phe-DAP, 24 hours
Experimental: FIG. 50 has images of cells treated with a mixture of 1-Nap-Phe-DAP with fluorescent protein encoding mRNA (panel A) and plasmid DNA (panel B). […] In this example, 14 nM of the 1-Nap-Phe-DAP was used with 1 microgram of mRNA or pDNA for 24 hours, after which the cells were images.

| Kd [1] | SMILES | delivery of fluorescent protein encoding mRNA into cells ([2]; 1 microgram mRNA, FIG. 50 panel A) | delivery of plasmid DNA into cells ([2]; 1 microgram pDNA, FIG. 50 panel B) |
| --- | --- | --- | --- |
| 183 ± 9 µM | CCCCCCC(=O)N[C@@H](Cc1ccccc1)C(=O)NCCCN [Hex-Phe-DAP] | – | – |
| 217 µM | NCCCNC(=O)[C@H](Cc1c(F)c(F)c(F)c(F)c1F)NC(=O)OCC1c2ccccc2-c2ccccc21 [Fmoc-F5-Phe-DAP] | – | – |
| 131 µM | NCCCNC(=O)[C@H](Cc1cccc(F)c1)NC(=O)OCC1c2ccccc2-c2ccccc21 [Fmoc-3F-Phe-DAP] | – | – |
| 293 µM | NCCCNC(=O)[C@H](Cc1ccccc1)NC(=O)Cc1cccc2ccccc12 [1-Nap-Phe-DAP] | fluorescence visible in the cytosol | fluorescence visible in the cytosol |
| 159 µM | NCCCNC(=O)[C@H](Cc1ccccc1)NC(=O)OCC1c2ccccc2-c2ccccc21 [Fmoc-Phe-DAP] | – | – |
| 32 µM | NCCCNC(=O)[C@H](Cc1ccccc1)NC(=O)CCCc1ccc2ccc3cccc4ccc1c2c34 [Pyr-Phe-DAP] | – | – |
| 307 ± 34 µM | NCCCNC(=O)[C@H](Cc1ccccc1)NC(=O)CC1c2ccccc2-c2ccccc21 [Fm-Phe-DAP] | – | – |
| 179 ± 8 µM | NCCCNC(=O)[C@H](Cc1ccccc1)NC(=O)C1CCCCC1 [Cyc-Phe-DAP] | – | – |
| 97 µM | NCCCNC(=O)[C@H](Cc1ccccc1)NC(=O)OCc1ccccc1 [Cbz-Phe-DAP] | – | – |
| 186 µM | NCCCNC(=O)[C@H](Cc1ccccc1)NC(=O)Cc1ccc2ccccc2c1 [2-Nap-Phe-DAP] | – | – |
